≈ marks a conversion by molar mass, not a printed value. Calls of active or inactive are those of the source. The calls are words filed in the database; no cut-off is given here.
Assays:
[1] = target: Phosphatidylinositol 4,5-bisphosphate 3-kinase catalytic subunit alpha isoform (Homo sapiens, UniProt P42336); assay: Inhibition of PI3Kalpha (unknown origin) using PIP2:3PS as substrate in presence of ATP measured after 120 mins by ADP-Glo assay
[2] = organism: Homo sapiens; assay: Selectivity ratio of Ki for PI3Kdelta (unknown origin) to Ki for PI3Kalpha (unknown origin)
[3] = Lipophilicity, logD of compound in 1-Octanol/PBS at pH 7.4 by LC-MS/MS method; type: physicochemical
[4] = Apparent permeability across apical to basolateral side in MDCK cells at 10 uM measured upto 180 mins by LC-MS/MS method; type: ADME, cell-based, Canis lupus familiaris; details: dog
[5] = Kinetic solubility of the compound at pH 7.4; type: physicochemical; details: buffer, read-out: Kinetic_solubility
[6] = Clearance in Sprague-Dawley rat plasma at 1 mg/kg, iv measured upto 8 hrs by LC-MS/MS analysis; type: ADME, organism-based
[7] = Oral bioavailability in Sprague-Dawley rat plasma at 5 mg/kg measured upto 8 hrs by LC-MS/MS method; type: ADME, organism-based
[8] = organism: Homo sapiens; assay: Selectivity ratio of EC50 for PI3Kalpha H1047R mutant in human HCC1954 cells assessed as reduction in PRAS40 phosphorylation to EC50 for wild type PI3Kalpha in human HDQ-P1 cells assessed as reduction in PRAS40 phosphorylation; type: cell-based
[9] = target: Phosphatidylinositol 4,5-bisphosphate 3-kinase catalytic subunit alpha isoform (Homo sapiens, UniProt P42336, H1047R)
Chain of Phosphatidylinositol 4,5-bisphosphate 3-kinase catalytic subunit alpha isoform (Homo sapiens, UniProt P42336, H1047R) (P42336 whole entry H1047R, canonical isoform): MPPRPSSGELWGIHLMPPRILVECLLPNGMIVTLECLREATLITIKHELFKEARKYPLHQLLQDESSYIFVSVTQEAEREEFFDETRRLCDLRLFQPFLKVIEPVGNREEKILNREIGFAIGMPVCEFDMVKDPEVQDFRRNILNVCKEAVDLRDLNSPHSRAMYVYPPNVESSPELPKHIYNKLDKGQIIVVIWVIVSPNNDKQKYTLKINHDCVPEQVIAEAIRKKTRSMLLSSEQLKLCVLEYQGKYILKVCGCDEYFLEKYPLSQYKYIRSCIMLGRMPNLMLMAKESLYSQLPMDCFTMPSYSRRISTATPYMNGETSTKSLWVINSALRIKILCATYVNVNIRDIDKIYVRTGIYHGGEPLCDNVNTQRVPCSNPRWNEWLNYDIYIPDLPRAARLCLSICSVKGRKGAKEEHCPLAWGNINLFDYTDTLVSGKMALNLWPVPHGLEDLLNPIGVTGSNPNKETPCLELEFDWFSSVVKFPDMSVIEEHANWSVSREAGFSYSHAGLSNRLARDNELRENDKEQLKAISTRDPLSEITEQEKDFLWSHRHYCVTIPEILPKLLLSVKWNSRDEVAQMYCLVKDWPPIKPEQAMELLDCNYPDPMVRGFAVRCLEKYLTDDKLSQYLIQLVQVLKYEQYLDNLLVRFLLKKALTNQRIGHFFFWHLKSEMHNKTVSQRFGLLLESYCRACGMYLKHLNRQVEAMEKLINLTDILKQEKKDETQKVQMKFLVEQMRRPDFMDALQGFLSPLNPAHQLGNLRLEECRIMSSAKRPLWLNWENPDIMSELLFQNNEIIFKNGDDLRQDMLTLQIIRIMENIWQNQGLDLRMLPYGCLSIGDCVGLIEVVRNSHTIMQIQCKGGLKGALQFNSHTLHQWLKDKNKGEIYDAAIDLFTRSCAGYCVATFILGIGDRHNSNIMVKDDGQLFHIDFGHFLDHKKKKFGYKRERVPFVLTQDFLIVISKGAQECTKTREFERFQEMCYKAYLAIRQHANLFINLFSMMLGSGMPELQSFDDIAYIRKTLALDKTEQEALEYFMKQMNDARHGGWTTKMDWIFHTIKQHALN

[10] = test system: Phosphatidylinositol 4,5-bisphosphate 3-kinase catalytic subunit alpha isoform (Homo sapiens), P42336 [H1047R]; assay: Induction of P110alpha H1047R mutant degradation in human HCC1954 cells at 0.012 to 1 uM after 24 hrs; type: cell-based; details: dose 0.012-1 µM
Chain of Phosphatidylinositol 4,5-bisphosphate 3-kinase catalytic subunit alpha isoform (Homo sapiens), P42336 [H1047R] (P42336 whole entry H1047R, canonical isoform): as above

[11] = test system: Phosphatidylinositol 4,5-bisphosphate 3-kinase catalytic subunit alpha isoform (Homo sapiens), P42336 [H1047R]; assay: Inhibition of PI3Kalpha H1047R mutant in human HCC1954 cells assessed as reduction in PRAS40 phosphorylation after 24 hrs by electrochemiluminescent assay

Chain of Phosphatidylinositol 4,5-bisphosphate 3-kinase catalytic subunit alpha isoform (Homo sapiens, UniProt P42336) (P42336 whole entry, canonical isoform): as the sequence (P42336 whole entry H1047R, canonical isoform) above, with R1047H counted along it

NC(=O)[C@@H](Nc1ccc2c(c1)OCCn1cc(N3C(=O)OC[C@H]3C(F)(F)F)nc1-2)C1CCC1
Ki [1]: 0.323 nM
Ratio Ki [2]: 182

CO[C@H]1CCN(c2cn3c(n2)-c2ccc(N4CCC[C@H]4C(N)=O)cc2OCC3)C1=O
logD [3]: 0.9
Ki [1]: 3.15 nM
Ratio Ki [2]: 4
Papp A→B at 3 h, 10 µM [4]: 2.6 ×10⁻⁶ cm/s
solubility kinetic [5]: 154 µM (≈ 63.4 µg/mL)

NC(=O)[C@@H]1CCCN1c1ccc2c(c1)OCCn1cc(N3CCCOC3=O)nc1-2
Ki [1]: 30.3 nM
Ratio Ki [2]: 9

NC(=O)[C@@H]1CCCN1c1ccc2c(c1)OCCn1cc(N3CCCOCC3=O)nc1-2
logD [3]: 0.7
Ki [1]: 0.32 nM
Ratio Ki [2]: 15
solubility kinetic [5]: 11 µM (≈ 4.53 µg/mL)

NC(=O)[C@@H]1CCCN1c1ccc2c(c1)OCCn1cc(N3CCn4nccc4C3=O)nc1-2
logD [3]: 1.2
Ki [1]: 0.44 nM
Ratio Ki [2]: 7
solubility kinetic [5]: 2 µM (≈ 0.867 µg/mL)

NC(=O)[C@@H]1[C@H](F)CCN1c1ccc2c(c1)OCCn1cc(N3C(=O)OC[C@H]3C(F)(F)F)nc1-2
Ki [1]: 0.289 nM
Ratio Ki [2]: 25

C[C@@H]1COC(=O)N1c1cn2c(n1)-c1ccc(N3CCC[C@H]3C(N)=O)cc1OCC2
clearance [6]: 23 mL/min/kg
logD [3]: 0.7
Ratio Ki [2]: 24
Papp A→B at 3 h, 10 µM [4]: 2.1 ×10⁻⁶ cm/s
bioavailability [7]: 59%
solubility kinetic [5]: 150 µM (≈ 59.6 µg/mL)

CC(C)[C@H](Nc1ccc2c(c1)OCCn1cc(N3C(=O)OC[C@H]3C(F)(F)F)nc1-2)C(N)=O
clearance [6]: 61 mL/min/kg
Ratio EC50 [8]: 2.3
logD [3]: 1.7
Ki [1]: 0.692 nM
EC50 [9]: 157 nM
Ratio Ki [2]: 94
Papp A→B at 3 h, 10 µM [4]: 1.9 ×10⁻⁶ cm/s
bioavailability [7]: 137%

C[C@H](Oc1ccc2c(c1)OCCn1cc(-c3ncnn3CC(F)(F)F)nc1-2)C(N)=O
logD [3]: 2.2
Ratio Ki [2]: 14

CC1(C)C(=O)NC(=O)N1c1cn2c(n1)-c1ccc(N3CCC[C@H]3C(N)=O)cc1OCC2
logD [3]: 0.7
Ki [1]: 0.681 nM
Ratio Ki [2]: 5
Papp A→B at 3 h, 10 µM [4]: 0.3 ×10⁻⁶ cm/s
solubility kinetic [5]: 114 µM (≈ 48.4 µg/mL)

NC(=O)[C@@H]1CCCN1c1ccc2c(c1)OCCn1cc(N3C(=O)CC[C@H]3C(F)(F)F)nc1-2
logD [3]: 1.6
Ki [1]: 0.8 nM

NC(=O)[C@@H]1CCCN1c1ccc2c(c1)OCCn1cc(N3C(=O)OC[C@H]3CF)nc1-2
logD [3]: 0.8
Activity [10]: Active
inhibition [11]: Active
Ratio Ki [2]: 46
Papp A→B at 3 h, 10 µM [4]: 2.6 ×10⁻⁶ cm/s
solubility kinetic [5]: 159 µM (≈ 66.1 µg/mL)

NC(=O)[C@@H]1CCCN1c1ccc2c(c1)OCCn1cc(N3CCOCCC3=O)nc1-2
logD [3]: 0.7
Ki [1]: 3.82 nM
Ratio Ki [2]: 6
solubility kinetic [5]: 44 µM (≈ 18.1 µg/mL)

C[C@H](Oc1ccc2c(c1)OCCn1cc(N3C(=O)OC[C@H]3C(F)F)nc1-2)C(N)=O
Ratio Ki [2]: 52

NC(=O)[C@@H](Nc1ccc2c(c1)OCCn1cc(N3C(=O)OC[C@H]3CF)nc1-2)C1CC1
clearance [6]: 63 mL/min/kg
logD [3]: 0.7
Papp A→B at 3 h, 10 µM [4]: 0.8 ×10⁻⁶ cm/s

CC[C@H](Nc1ccc2c(c1)OCCn1cc(N3C(=O)OC[C@H]3C(F)(F)F)nc1-2)C(N)=O
clearance [6]: 91 mL/min/kg
Ratio EC50 [8]: 3.6
logD [3]: 1.4
Ki [1]: 0.157 nM
EC50 [9]: 56 nM
Ratio Ki [2]: 146
Papp A→B at 3 h, 10 µM [4]: 1.7 ×10⁻⁶ cm/s
bioavailability [7]: 82%
